Values after ≈ are worked out from the molar mass of the structure shown. Active and inactive are the calls of the source. No cut-off for these calls is given here.
Key:
[1] = Metabolic stability in rat liver microsomes assessed as half life measured for 5 to 60 mins by LC-MS/MS analysis; assay type: ADME, Microsome; conditions: time 5-60 min
[2] = tested on: NCI-H1975; assay: Anti-proliferative activity against human NCI-H1975 cells assessed as cell inhibition measured after 72 hrs by MTT assay; assay type: functional, cell-based; conditions: NCI-H1975, 72 h
[3] = Anti-proliferative activity against human Osimertinib-resistant HCC827 cells assessed as cell inhibition measured after 72 hrs by MTT assay; assay type: functional, cell-based
[4] = Metabolic stability in human liver microsomes assessed as half life measured for 5 to 60 mins by LC-MS/MS analysis; assay type: ADME, Microsome; conditions: time 5-60 min
[5] = molecular target: CDK9/cyclin T1 (Homo sapiens, UniProt P50750); assay: Inhibition of CDK9/cyclin T1 (unknown origin) preincubated for 10 mins followed by substrate/ATP measured after 60 mins by ADP-Glo assay; assay type: protein-complex assay
CDK9/cyclin T1, sequence (O60563 whole entry): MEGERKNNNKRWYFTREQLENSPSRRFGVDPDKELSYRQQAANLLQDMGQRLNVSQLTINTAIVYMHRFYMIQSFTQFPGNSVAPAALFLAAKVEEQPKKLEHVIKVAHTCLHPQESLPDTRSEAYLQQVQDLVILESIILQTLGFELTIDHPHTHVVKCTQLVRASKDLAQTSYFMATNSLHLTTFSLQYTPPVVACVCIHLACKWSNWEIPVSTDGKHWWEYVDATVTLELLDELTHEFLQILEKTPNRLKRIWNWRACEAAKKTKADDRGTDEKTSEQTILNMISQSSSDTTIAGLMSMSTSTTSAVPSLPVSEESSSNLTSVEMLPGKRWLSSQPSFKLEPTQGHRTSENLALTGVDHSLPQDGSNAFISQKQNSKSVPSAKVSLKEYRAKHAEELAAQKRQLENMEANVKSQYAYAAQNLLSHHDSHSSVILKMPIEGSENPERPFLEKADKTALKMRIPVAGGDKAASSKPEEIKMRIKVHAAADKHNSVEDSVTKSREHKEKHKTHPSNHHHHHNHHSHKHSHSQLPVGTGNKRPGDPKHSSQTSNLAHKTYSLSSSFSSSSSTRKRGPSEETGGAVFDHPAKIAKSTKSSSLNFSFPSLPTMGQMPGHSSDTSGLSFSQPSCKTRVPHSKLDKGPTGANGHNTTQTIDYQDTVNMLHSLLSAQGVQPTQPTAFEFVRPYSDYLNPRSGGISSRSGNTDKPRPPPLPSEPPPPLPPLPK
CDK9/cyclin T1, sequence (P50750 whole entry): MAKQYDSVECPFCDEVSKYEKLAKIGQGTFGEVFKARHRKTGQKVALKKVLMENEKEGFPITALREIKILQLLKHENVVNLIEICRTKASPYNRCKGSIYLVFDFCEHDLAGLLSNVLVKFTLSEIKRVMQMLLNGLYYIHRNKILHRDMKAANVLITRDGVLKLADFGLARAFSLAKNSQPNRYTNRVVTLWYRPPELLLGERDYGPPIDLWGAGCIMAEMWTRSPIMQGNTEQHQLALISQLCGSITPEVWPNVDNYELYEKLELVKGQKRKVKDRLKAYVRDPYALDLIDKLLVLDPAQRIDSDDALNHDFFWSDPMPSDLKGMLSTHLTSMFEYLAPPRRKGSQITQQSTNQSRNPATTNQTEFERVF

[6] = molecular target: CDK2/Cyclin A2 (Homo sapiens, UniProt P24941); assay: Inhibition of CDK2/Cyclin A2 (unknown origin) preincubated for 10 mins followed by substrate/ATP measured after 60 mins by ADP-Glo assay; assay type: protein-complex assay
[7] = tested on: Osimertinib-resistant NCI-H1975 cell; assay: Anti-proliferative activity against human Osimertinib-resistant NCI-H1975 cells assessed as cell inhibition measured after 72 hrs by MTT assay; assay type: functional, cell-based
[8] = Solubility of compound in PBS at pH 6.0 incubated for 2 hrs by HPLC analysis; assay type: physicochemical
[9] = tested on: HCC827; assay: Anti-proliferative activity against human HCC827 cells assessed as cell inhibition measured after 72 hrs by MTT assay; assay type: functional, cell-based; conditions: HCC827, 72 h
[10] = Toxicity in BALB-c mouse xenografted with human NCI-H1975 cells assessed as decrease in body weight at 30 mg/kg, ip; assay type: organism-based; conditions: in vivo
[11] = tested on: NCI-H1975; assay: Antitumor activity against human NCI-H1975 cells xenografted in BALB-c nude mouse assessed as tumor growth inhibition at 30 mg/kg, ip; assay type: functional, organism-based
[12] = tested on: Osimertinib-resistant HCC827 cell; assay: Antitumor activity against human Osimertinib-resistant HCC827 cells xenografted in BALB-c nude mouse assessed as tumor growth inhibition at 30 mg/kg, ip; assay type: functional, organism-based
[13] = Toxicity in BALB-c mouse xenografted with human Osimertinib-resistant HCC827 cells assessed as decrease in body weight at 30 mg/kg, ip; assay type: organism-based; conditions: in vivo
[14] = tested on: Osimertinib-resistant NCI-H1975 cell; assay: Induction of apoptosis in human Osimertinib-resistant NCI-H1975 cells assessed as viable cells at 0.5 uM incubated for 16 hrs by Annexin V-FITC/PI staining based flow cytometry (reference value: 89.4 %); assay type: functional; conditions: read-out: Activity
[15] = tested on: PC-9; assay: Anti-proliferative activity against human PC-9 cells assessed as cell inhibition measured after 72 hrs by MTT assay; assay type: functional, cell-based; conditions: PC-9, 72 h
[16] = tested on: 16HBE14o-; assay: Anti-proliferative activity against human 16-HBE cells assessed as cell inhibition measured after 72 hrs by MTT assay; assay type: functional, cell-based
[17] = tested on: NCI-H596; assay: Anti-proliferative activity against human NCI-H596 cells assessed as cell inhibition measured after 72 hrs by MTT assay; assay type: functional, cell-based; conditions: NCI-H596, 72 h
[18] = tested on: Osimertinib-resistant NCI-H1975 cell; assay: Induction of apoptosis in human Osimertinib-resistant NCI-H1975 cells assessed as late apoptotic cells at 0.5 uM incubated for 16 hrs by Annexin V-FITC/PI staining based flow cytometry (reference value: 5.92 %); assay type: functional
[19] = tested on: NCI-H1299; assay: Anti-proliferative activity against human NCI-H1299 cells assessed as cell inhibition measured after 72 hrs by MTT assay; assay type: functional, cell-based; conditions: NCI-H1299, 72 h
[20] = tested on: Osimertinib-resistant NCI-H1975 cell; assay: Induction of apoptosis in human Osimertinib-resistant NCI-H1975 cells assessed as early apoptotic cells at 0.5 uM incubated for 16 hrs by Annexin V-FITC/PI staining based flow cytometry (reference value: 4.39 %); assay type: functional
[21] = tested on: Osimertinib-resistant NCI-H1975 cell; assay: Induction of apoptosis in human Osimertinib-resistant NCI-H1975 cells assessed as necrotic cells at 0.5 uM incubated for 16 hrs by Annexin V-FITC/PI staining based flow cytometry (reference value: 0.33 %); assay type: functional

## O=C(NC1CCN(C2CCOC2)CC1)c1ccc2cc1OCCCCCCOc1cc(ccc1F)-c1nc(ncc1F)N2 (stereo not given)
[1]
  half-life: 25.2 min
[2]
  IC50: 0.38 µM
[3]
  IC50: 0.3 µM
[4]
  half-life: 55 min
[5]
  IC50: 0.001 µM
[6]
  IC50: 0.15 µM
[7]
  IC50: 0.11 µM

## O=C(NC1CCN(C2CCOCC2)CC1)c1ccc2cc1OCCCCCCOc1cc(ccc1F)-c1nc(ncc1F)N2
[4]
  half-life: 301 min

## CN1CCC(CNC(=O)c2ccc3cc2OCCCCCCOc2cc(ccc2F)-c2nc(ncc2F)N3)CC1
[1]
  half-life: 12.4 min
[4]
  half-life: 112 min
[5]
  IC50: 0.0031 µM
[6]
  IC50: 0.0389 µM
[7]
  IC50: 0.25 µM

## O=C(NCCN1CCOCC1)c1ccc2cc1OCCCCCCOc1cc(ccc1F)-c1nc(ncc1F)N2
[8]
  solubility at 2 h: 17 µg/mL (≈ 30.7 µM)
[1]
  half-life: 6.8 min
[2]
  IC50: 0.18 µM
[3]
  IC50: 0.24 µM
[4]
  half-life: 10.7 min

## O=C(NC1CCN(C2CC2)CC1)c1ccc2cc1OCCCCCCn1cc(cn1)-c1nc(ncc1F)N2
[5]
  IC50: 0.001 µM
[6]
  IC50: 0.0114 µM

## Cc1sc2c(c1C)C(c1ccc(Cl)cc1)=N[C@@H](CC(=O)OC(C)(C)C)c1nnc(C)n1-2
[2]
  IC50: 3.97 µM
[3]
  IC50: 8.91 µM
[9]
  IC50: 9.74 µM
[10]
  Activity: Non-toxic
[11]
  inhibition: inactive
[12]
  inhibition: inactive
[13]
  Activity: Non-toxic
[7]
  IC50: 2.29 µM

## CC(=O)N1CCC(NC(=O)c2ccc3cc2OCCCCCCOc2cncc(c2)-c2nc(ncc2F)N3)CC1
[3]
  IC50: 0.04 µM
[5]
  IC50: 0.001 µM
[6]
  IC50: 0.0206 µM

## O=C(NC1CCN(C2CCOC2)CC1)c1ccc2cc1OCCCCCCOc1cncc(c1)-c1nc(ncc1F)N2 (stereo not given)
[8]
  solubility at 2 h: 58 µg/mL (≈ 101 µM)
[2]
  IC50: 0.06 µM
[3]
  IC50: 0.04 µM
[5]
  IC50: 0.0011 µM
[6]
  IC50: 0.0181 µM

## O=C(NCCN1CCCC1)c1ccc2cc1OCCCCCCOc1cc(ccc1F)-c1nc(ncc1F)N2
[1]
  half-life: 36.7 min
[2]
  IC50: 0.29 µM
[3]
  IC50: 0.14 µM
[4]
  half-life: 37.7 min
[5]
  IC50: 0.0017 µM
[6]
  IC50: 0.0183 µM
[7]
  IC50: 0.1 µM

## O=C(NC1CCN(C2CC2)CC1)c1ccc2cc1OCCCCCCOc1cc(ccc1F)-c1nc(ncc1F)N2
[1]
  half-life: 64.7 min
[2]
  IC50: 0.32 µM
[3]
  IC50: 0.21 µM
[4]
  half-life: 21.4 min
[5]
  IC50: 0.0034 µM
[6]
  IC50: 0.37 µM
[7]
  IC50: 0.23 µM

## O=C(NC1CCN(C2CC2)CC1)c1ccc2cc1OCCCCCCOc1cncc(c1)-c1nc(ncc1F)N2
[5]
  IC50: 0.0014 µM
[6]
  IC50: 0.0283 µM

## O=C(NCCN1CCOCC1)c1ccc2cc1OCCCCCCOc1cncc(c1)-c1nc(ncc1F)N2
[8]
  solubility at 2 h: 39 µg/mL (≈ 72.7 µM)
[2]
  IC50: 0.07 µM
[5]
  IC50: 0.0015 µM
[6]
  IC50: 0.0222 µM

## CC(C)N1CCC(NC(=O)c2ccc3cc2OCCCCCCOc2cc(ccc2F)-c2nc(ncc2F)N3)CC1
[1]
  half-life: 8.6 min
[2]
  IC50: 0.37 µM
[4]
  half-life: 161 min
[5]
  IC50: 0.0023 µM
[6]
  IC50: 0.067 µM
[7]
  IC50: 0.36 µM

## CN1CCN(CCNC(=O)c2ccc3cc2OCCCCCCOc2cc(ccc2F)-c2nc(ncc2F)N3)CC1
[1]
  half-life: 9.5 min
[4]
  half-life: 13.2 min

## CN1CCC(NC(=O)c2ccc3cc2OCCCCCCOc2cc(ccc2F)-c2nc(ncc2F)N3)CC1
[1]
  half-life: 42.5 min
[4]
  half-life: 66.6 min

## COC[C@@H](C)NC(=O)c1ccc2cc1OCCCCCCOc1cc(ccc1F)-c1nc(ncc1F)N2
[1]
  half-life: 123 min
[2]
  IC50: 0.3 µM
[3]
  IC50: 0.28 µM
[4]
  half-life: 11.3 min
[5]
  IC50: 0.0025 µM
[6]
  IC50: > 0.5 µM
[7]
  IC50: 0.22 µM

## O=C(NC1CCN(C2CCOC2)CC1)c1ccc2cc1OCCCCCCn1cc(cn1)-c1nc(ncc1F)N2 (stereo not given)
[8]
  solubility at 2 h: 35 µg/mL (≈ 63.7 µM)
[2]
  IC50: 0.09 µM
[3]
  IC50: 0.08 µM
[5]
  IC50: 0.0013 µM
[6]
  IC50: 0.0142 µM

## O=C(NC1CCN(C2CCOC2)CC1)c1ccc2cc1OCCCCCCOc1cc(ccc1F)-c1ncnc(n1)N2 (stereo not given)
[8]
  solubility at 2 h: 27 µg/mL (≈ 46.8 µM)
[2]
  IC50: 0.11 µM
[3]
  IC50: 0.35 µM
[5]
  IC50: 0.0061 µM
[6]
  IC50: 0.286 µM

## COc1cc(F)ccc1-c1cc(Nc2cc(CS(C)(=N)=O)ccn2)ncc1F (stereo not given) [ENITOCICLIB]
[2]
  IC50: 0.14 µM
[3]
  IC50: 0.13 µM
[9]
  IC50: 0.13 µM
[14]
  viability at 0.5 µM: 76.9%
[15]
  IC50: 0.12 µM
[16]
  IC50: 0.41 µM
[17]
  IC50: 0.09 µM
[18]
  Activity: 10.1%
[7]
  IC50: 0.12 µM
[19]
  IC50: 0.13 µM
[20]
  Activity: 11.8%
[21]
  Activity: 1.26%

## O=C(CN1CCOCC1)NCc1ccc2cc1OCCCCCCOc1cc(ccc1F)-c1nc(ncc1F)N2
[8]
  solubility at 2 h: 20 µg/mL (≈ 36.1 µM)
[2]
  IC50: 0.59 µM
[5]
  IC50: 0.00513 µM
[6]
  IC50: 0.2 µM

## CCN1CCC(NC(=O)c2ccc3cc2OCCCCCCOc2cc(ccc2F)-c2nc(ncc2F)N3)CC1
[1]
  half-life: 5.4 min
[2]
  IC50: 0.28 µM
[4]
  half-life: 257 min
[5]
  IC50: 0.0023 µM
[6]
  IC50: 0.0688 µM
[7]
  IC50: 0.28 µM

Source: ChEMBL document CHEMBL6153135, “Rational Design of a Potent, Selective, and Metabolically Stable CDK9 Inhibitor to Counteract Osimertinib Resistance through Mcl-1 Suppression and Enhanced BRD4 Co-Targeting” (J Med Chem, 2025)
